Where no end group is shown, it is not given here.

For one experiment, the target named is Gi1 (Bos taurus, UniProt P63097). The experiment can be described thus: GTPγS binding, peptide 14-induced Gi1 activation. It counts as biochemical. As to conditions: high concentrations (≥30 μM) of ACGi2; 10 nM Gi1, 30 μM peptide 14, 4 min. As for the experimental part:
(§1) GTPγS binding Assay--GTPγS binding to G proteins was assayed at 37° C. in 20 mM Hepes/NaOH buffer (pH 7.4) containing 130 μM MgCl2, 110 μM EDTA and 60 nM [^35 S]GTPγS, as described previously (Okamoto et al., 1990). GTPγS binding to polypeptides was negligible. The total amount of G protein was measured as maximal GTPγS binding at room temperature, as described (Okamoto et al., Cell 67:723-730, 1991a). [^35 S]GTPγS was purchased from DuPont-New England Nuclear. Binding of GTPγS to G proteins obeyed first-order kinetics according to the equation ln[(BT-B)/BT]=-kapp t, where B is the binding at time t and BT is the total binding observable at an infinite time. Thus, the apparent first-order rate constant for GTPγS binding (kapp), which is equal to the slope of the tangent to the GTPγS binding curve at time 0 and represents the actual GTPγS binding rate, was calculated from this equation.
Peptide 14 is capable of activating Gi1 and Gi3 as well as Gi2 (Okamoto et al., 1990). The effect of ACGi2 on peptide 14-induced activation of these Gi proteins was examined as follows: 10 nM Gi1 (.quadrature.) or Gi3 (.diamond-solid.) was incubated with 30 μM peptide 14 in the presence of various concentrations of ACGi2 for 4 min, and GTPβS binding was measured. The fractional GTPγS binding to Gi1 or Gi3 at 0% was (in 4 min^-1) 0.38 or 0.30, and that at 100% was 0.54 or 0.63, respectively.

Experiment [1] concerns the target T1, Gi2 (Bos taurus, UniProt A7MBH9).
T1 construct: trimeric Gi2 (i.e., Gi2 αβγ) purified from bovine brain to near homogeneity; from tissue; host or cells: bovine brain
The experiment can be described thus: GTPγS binding, TrM-peptide 14-induced Gi2 activation in phospholipid vesicles. As to conditions: 0.3 nM Gi2 in phospholipid vesicles, 100 nM TrM-peptide 14; read-out: IC50, inhibition of TrM-peptide 14 stimulation of Gi2. It counts as biochemical, bovine. As for the experimental part: Materials and Methods The in vitro assays described below utilize the couplone portion of each of a number of G-coupled receptors, instead of an intact receptor molecule, as a means for activating the corresponding anticouplone or intact G-protein. […]
GTPγS binding Assay--GTPγS binding to G proteins was assayed at 37° C. in 20 mM Hepes/NaOH buffer (pH 7.4) containing 130 μM MgCl2, 110 μM EDTA and 60 nM [^35 S]GTPγS, as described previously (Okamoto et al., 1990). […] The total amount of G protein was measured as maximal GTPγS binding at room temperature, as described (Okamoto et al., Cell 67:723-730, 1991a). […] Thus, the apparent first-order rate constant for GTPγS binding (kapp), which is equal to the slope of the tangent to the GTPγS binding curve at time 0 and represents the actual GTPγS binding rate, was calculated from this equation.
Transmembrane domain-connected peptide 14 ["TrM-peptide 14"; […] […] In one of the experiments shown in FIG. 1B, 0.3 nM Gi2 reconstituted in phospholipid vesicles with 100 nM TrM-peptide 14 was exposed to various concentrations of ACGi2, and GTPγS binding was measured (.diamond-solid.). […]

In experiment [2] the target is T1, Gi2. In words: GTPγS binding assay, peptide 14-induced Gi2 activation. It counts as biochemical, bovine. As for the experimental part: Materials and Methods The in vitro assays described below utilize the couplone portion of each of a number of G-coupled receptors, instead of an intact receptor molecule, as a means for activating the corresponding anticouplone or intact G-protein. Except as noted below, Gi2 used in this study was trimeric Gi2 (i.e., Gi2 αβγ) purified from bovine brain to near homogeneity (Katada et al., FEBS Lett. 213:353-358 (1987), stored in buffer A (20 mM hepes/NaOH (pH 7.4), 1 mM EDTA, and 0.7% CHAPS), and diluted≥10 fold for assays. The Gi2 used for the reconstitution experiment was trimeric Gi2 purified from bovine spleen to homogeneity and dissolved in buffer B (Morishita et al., 1989). Gi3 α (Morishita et al., Biochem. Biophys. Res. Commun. 172:249-255 (1990), was purified from bovine spleen and used in combination with 1.5-fold concentrated Gβγ (Katada et al., 1987). This preparation of Gi3 α was 10-20% contaminated by Gi1 α, but not by other G proteins. Trimeric Gs and Gβγ purified from bovine brain to near homogeneity (Katada et al., 1987) were also stored in buffer A.
as §1
In the experiment illustrated in FIG. 1A, 10 nM Gi2 was incubated with 30 μM peptide 14 (RVGLVRGEKARKGK; SEQ ID NO: 27), the couplone portion of the IGF-II receptor, in the presence of various concentrations of (.quadrature.) ACGi2 (DAVTDVIIKNNLKDC; SEQ ID NO: 3), (567 ) the control Gi2 α Glu297-Asp310 peptide (EAASYIQSKFEKLN; SEQ ID NO: 18), or (.diamond.) the control Gi2 α Lys346-Phe355 peptide (KNNLKDCGLF; SEQ ID NO: 19) for 5 min under the GTPγS binding assay conditions described above, and GTPγS binding to G proteins was measured. The effect of ACGi2 on Gi2 in the absence of peptide 14 is indicated by .box-solid.. Percent stimulation of GTPγS binding was calculated by subtracting the basal fractional binding and dividing by the stimulated fractional binding observed in the absence of ACGi2. The basal fractional binding (=0%) was 0.39 mol GTPγS binding/mol Gi /5 min (5 min^-1). The 100% increase represents the GTPγS binding of 0.85 (5 min^-1). Values in all figures represent the mean ±S.E. of three experiments.
To verify the notion that ACGi2 acts on Gi2 itself, and not on receptor sequences, two series of experiments were performed. First, the dose-response curve for peptide 14 action on Gi2 in the presence of various concentrations of ACGi2 was generated (FIG. 2A). Following incubation of 10 nM Gi2 with various concentrations of peptide 14 in the absence (.quadrature.) or presence of 10 μM (.diamond-solid.) or 30 μM (.box-solid.) ACGi2 for 5 min, GTPγS binding was assayed; fractional GTPγS binding to Gi2 is indicated in the figure.
The second series of experiments investigated the effect of ACGi2 on lower concentrations of Gi2 that had been activated by peptide 14 to the same extent (FIG. 2B). 1 nM Gi2 was incubated for 5 min with 3 μM peptide 14 in the presence of various concentrations of ACGi2, and GTPγS binding was measured. The fractional GTPγS binding at 0% and 100% in this experiment was 0.40 and 0.55 (5 min^-1), respectively. […]

T1 sequence (A7MBH9 2-355 limits assumed): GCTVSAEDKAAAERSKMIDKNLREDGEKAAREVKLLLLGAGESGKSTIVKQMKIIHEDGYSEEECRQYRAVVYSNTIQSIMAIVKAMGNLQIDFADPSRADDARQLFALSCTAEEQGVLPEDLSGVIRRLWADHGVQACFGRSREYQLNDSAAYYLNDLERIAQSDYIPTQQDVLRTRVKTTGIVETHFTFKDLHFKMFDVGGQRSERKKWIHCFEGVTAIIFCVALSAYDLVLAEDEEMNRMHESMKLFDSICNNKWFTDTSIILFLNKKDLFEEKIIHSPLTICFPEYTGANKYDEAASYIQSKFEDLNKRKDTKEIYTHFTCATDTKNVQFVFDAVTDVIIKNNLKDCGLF
T1 sequence (P62871 2-340 partner limits assumed): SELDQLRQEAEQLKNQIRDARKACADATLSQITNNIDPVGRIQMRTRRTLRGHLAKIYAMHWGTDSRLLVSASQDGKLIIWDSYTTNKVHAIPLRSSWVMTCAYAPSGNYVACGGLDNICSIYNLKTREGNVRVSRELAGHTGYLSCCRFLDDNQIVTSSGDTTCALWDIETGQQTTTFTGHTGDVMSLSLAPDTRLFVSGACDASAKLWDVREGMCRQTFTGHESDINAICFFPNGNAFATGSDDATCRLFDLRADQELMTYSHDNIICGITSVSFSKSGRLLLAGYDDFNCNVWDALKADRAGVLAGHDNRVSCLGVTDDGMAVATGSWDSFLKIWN
T1 sequence (P63212 2-68 partner limits assumed): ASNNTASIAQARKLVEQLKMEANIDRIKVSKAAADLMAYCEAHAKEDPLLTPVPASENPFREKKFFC
Sequence of Gi1 (P63097 2-354 limits assumed): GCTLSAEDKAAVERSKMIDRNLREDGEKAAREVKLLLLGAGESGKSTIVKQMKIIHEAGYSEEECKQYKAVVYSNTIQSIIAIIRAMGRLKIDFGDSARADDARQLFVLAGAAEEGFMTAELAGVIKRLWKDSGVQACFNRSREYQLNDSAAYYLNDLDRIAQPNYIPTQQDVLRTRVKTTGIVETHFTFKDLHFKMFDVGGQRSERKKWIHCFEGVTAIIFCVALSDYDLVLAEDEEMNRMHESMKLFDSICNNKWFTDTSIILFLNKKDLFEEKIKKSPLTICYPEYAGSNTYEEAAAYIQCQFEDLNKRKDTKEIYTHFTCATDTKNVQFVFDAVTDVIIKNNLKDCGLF
Sequence of Gi1 (P62871 2-340 partner limits assumed): as the sequence (P62871 2-340 partner limits assumed) above
Sequence of Gi1 (P63212 2-68 partner limits assumed): as the sequence (P63212 2-68 partner limits assumed) above

For “DAVTDVIIKNNLKDC [ACGi2, DAVTDVIIKNNLKDC]”, the “maximal inhibition of peptide 14-induced Gi1 activation” value at Gi1 was 30%. Also, the IC50 is 3 µM at Gi2 [1] and about 3 µM at Gi2 [2] (10 nM Gi2, 30 μM peptide 14, 5 min, read-out: IC50, inhibition of peptide 14-induced GTPγS binding to Gi2). At Gi2 [2] (at 3 μM ACGi2 (so in the source), read-out: inhibition of stimulation of Gi2), the inhibition at 3 µM was found to be 100%.

The record behind these values is US5559209A, “Regulator regions of G proteins” (The General Hospital Corporation, priority 1993, dated 1996).
